Legend:
[1] = mouse, in vivo; for MRT0-t: Kunming, iv, 1 mg/kg
[2] = mouse, in vivo

| Compound | (AUC0-t)prodrug/(AUC0-t)prototype drug [1] | (AUC0-t)prodrug group/(AUC0-t)prototype drug group [2] | MRT0-t [1] [h] |
| --- | --- | --- | --- |
| CCSS/C(CCOC(=O)CCC(=O)OC1CCC(N(C)C(=O)c2ccc3nonc3c2)CC1)=C(/C)N(C)C=O (stereo not drawn) [Compound 1, Succinic acid anti-4-[(benzo[c][1,2,5]oxadiazole-5-carbonyl)-methyl-amino]-cyclohexyl ester 3-ethyldisulfanyl-4-(formyl-methyl-amino)-pent-3-enyl ester] | 1.55 | 0.48 | – |
| CCCSS/C(CCOC(=O)CCC(=O)OC1CCC(N(C)C(=O)c2ccc3nonc3c2)CC1)=C(/C)N(C)C=O (stereo not drawn) [Compound 2, Succinic acid anti-4-[(benzo[c][1,2,5]oxadiazole-5-carbonyl)-methyl-amino]-cyclohexyl ester 3-propyldisulfanyl-4-(formyl-methyl-amino)-pent-3-enyl ester] | 1.72 | 0.49 | – |
| C/C(=C(\CCOC(=O)CCC(=O)OC1CCC(N(C)C(=O)c2ccc3nonc3c2)CC1)SSC(C)C)N(C)C=O (stereo not drawn) [Compound 3, Succinic acid anti-4-[(benzo[c][1,2,5]oxadiazole-5-carbonyl)-methyl-amino]-cyclohexyl ester 3-isopropyldisulfanyl-4-(formyl-methyl-amino)-pent-3-enyl ester] | 1.77 | 0.62 | – |
| CCCCSS/C(CCOC(=O)CCC(=O)OC1CCC(N(C)C(=O)c2ccc3nonc3c2)CC1)=C(/C)N(C)C=O (stereo not drawn) [Compound 4, Succinic acid anti-4-[(benzo[c][1,2,5]oxadiazole-5-carbonyl)-methyl-amino]-cyclohexyl ester 3-butyldisulfanyl-4-(formyl-methyl-amino)-pent-3-enyl ester] | 1.56 | 0.68 | – |
| C/C(=C(\CCOC(=O)CCC(=O)OC1CCC(N(C)C(=O)c2ccc3nonc3c2)CC1)SSCC(C)C)N(C)C=O (stereo not drawn) [Compound 5, Succinic acid anti-4-[(benzo[c][1,2,5]oxadiazole-5-carbonyl)-methyl-amino]-cyclohexyl ester 3-isobutyldisulfanyl-4-(formyl-methyl-amino)-pent-3-enyl ester] | 1.70 | 0.67 | – |
| CCCCCSS/C(CCOC(=O)CCC(=O)OC1CCC(N(C)C(=O)c2ccc3nonc3c2)CC1)=C(/C)N(C)C=O (stereo not drawn) [Compound 6, Succinic acid anti-4-[(benzo[c][1,2,5]oxadiazole-5-carbonyl)-methyl-amino]-cyclohexyl ester 3-pentyldisulfanyl-4-(formyl-methyl-amino)-pent-3-enyl ester] | 1.88 | 0.62 | – |
| C/C(=C(\CCOC(=O)CCC(=O)OC1CCC(N(C)C(=O)c2ccc3nonc3c2)CC1)SSCCC(C)C)N(C)C=O (stereo not drawn) [Compound 7, Succinic acid anti-4-[(benzo[c][1,2,5]oxadiazole-5-carbonyl)-methyl-amino]-cyclohexyl ester 3-isopentyldisulfanyl-4-(formyl-methyl-amino)-pent-3-enyl ester] | 1.49 | 0.53 | – |
| C/C(=C(\CCOC(=O)CCC(=O)OC1CCC(N(C)C(=O)c2ccc3nonc3c2)CC1)SSCc1ccccc1)N(C)C=O (stereo not drawn) [Compound 8, Succinic acid anti-4-[(benzo[c][1,2,5]oxadiazole-5-carbonyl)-methyl-amino]-cyclohexyl ester 3-benzyldisulfanyl-4-(formyl-methyl-amino)-pent-3-enyl ester] | 1.73 | 0.62 | – |
| CCSS/C(CCOC(=O)CCCC(=O)OC1CCC(N(C)C(=O)c2ccc3nonc3c2)CC1)=C(/C)N(C)C=O (stereo not drawn) [Compound 9, Pentanedioic acid anti-4-[(benzo[c][1,2,5]oxadiazole-5-carbonyl)-methyl-amino]-cyclohexyl ester 3-ethyldisulfanyl-4-(formyl-methyl-amino)-pent-3-enyl ester] | 1.74 | 0.51 | – |
| CCCSS/C(CCOC(=O)CCCC(=O)OC1CCC(N(C)C(=O)c2ccc3nonc3c2)CC1)=C(/C)N(C)C=O (stereo not drawn) [Compound 10, Pentanedioic acid anti-4-[(benzo[c][1,2,5]oxadiazole-5-carbonyl)-methyl-amino]-cyclohexyl ester 3-propyldisulfanyl-4-(formyl-methyl-amino)-pent-3-enyl ester] | 1.86 | 0.47 | – |
| C/C(=C(\CCOC(=O)CCCC(=O)OC1CCC(N(C)C(=O)c2ccc3nonc3c2)CC1)SSC(C)C)N(C)C=O (stereo not drawn) [Compound 11, Pentanedioic acid anti-4-[(benzo[c][1,2,5]oxadiazole-5-carbonyl)-methyl-amino]-cyclohexyl ester 3-isopropyldisulfanyl-4-(formyl-methyl-amino)-pent-3-enyl ester] | 1.92 | 0.72 | – |
| CCCCSS/C(CCOC(=O)CCCC(=O)OC1CCC(N(C)C(=O)c2ccc3nonc3c2)CC1)=C(/C)N(C)C=O (stereo not drawn) [Compound 12, Pentanedioic acid anti-4-[(benzo[c][1,2,5]oxadiazole-5-carbonyl)-methyl-amino]-cyclohexyl ester 3-butyldisulfanyl-4-(formyl-methyl-amino)-pent-3-enyl ester] | 1.92 | 0.46 | – |
| C/C(=C(\CCOC(=O)CCCC(=O)OC1CCC(N(C)C(=O)c2ccc3nonc3c2)CC1)SSCC(C)C)N(C)C=O (stereo not drawn) [Compound 13, Pentanedioic acid anti-4-[(benzo[c][1,2,5]oxadiazole-5-carbonyl)-methyl-amino]-cyclohexyl ester 3-isobutyldisulfanyl-4-(formyl-methyl-amino)-pent-3-enyl ester] | 1.96 | 0.60 | – |
| CCCCCSS/C(CCOC(=O)CCCC(=O)OC1CCC(N(C)C(=O)c2ccc3nonc3c2)CC1)=C(/C)N(C)C=O (stereo not drawn) [Compound 14, Pentanedioic acid anti-4-[(benzo[c][1,2,5]oxadiazole-5-carbonyl)-methyl-amino]-cyclohexyl ester 3-pentyldisulfanyl-4-(formyl-methyl-amino)-pent-3-enyl ester] | 1.98 | 0.65 | – |
| CCCCCCSS/C(CCOC(=O)CCCC(=O)OC1CCC(N(C)C(=O)c2ccc3nonc3c2)CC1)=C(/C)N(C=O)CC(=O)OCC1OC(O)C(O)C(O)C1O [Compound 21, Pentanedioic acid anti-4-[(benzo[c][1,2,5]oxadiazole-5-carbonyl)-methyl-amino]-cyclohexyl ester 3-hexyldisulfanyl-4-[formyl-(D-glucos-6-yl-carbonylmethyl)-amino]-pent-3-enyl ester] | 1.68 | – | 1.91 |
| CCSS/C(CCOC(=O)CCCC(=O)OC1CCC(N(C)C(=O)c2ccc3nonc3c2)CC1)=C(/C)N(C=O)CC(=O)OCC(O)C1OC(=O)C(O)=C1O (stereo not drawn) [Compound 22, Pentanedioic acid anti-4-[(benzo[c][1,2,5]oxadiazole-5-carbonyl)-methyl-amino]-cyclohexyl ester 3-ethyldisulfanyl-4-{[2-(3,4-dihydroxy-5-oxo-2,5-dihydro-furan-2-yl)-2-hydroxy-ethoxycarbonylmethyl]-formyl-amino}-pent-3-enyl ester] | 1.82 | – | 2.00 |

From US10759822B2 (priority 2016, dated 2020)
